The values that follow come from PMC8588310, “Identification and Preliminary Structure-Activity Relationship Studies of 1,5-Dihydrobenzo[e][1,4]oxazepin-2(3H)-ones That Induce Differentiation of Acute Myeloid Leukemia Cells In Vitro” (Molecules, 2021).

Values after ≈ are worked out from the molar mass of the structure shown. Where only a bound is given, the exact number is not on record here.

One data set relates to HL-60 cells. The experiment in a line: CD11b expression assay by flow cytometry in HL-60 cells. Type of data set: cell-based, human. As to conditions: for EC50: Homo sapiens, HL-60, 96 h, 4-day (96 h) treatment, CD11b upregulation, read-out: EC50 [nM], %CD11b response in HL60 cells; for LipE (lipophilic efficiency): LipE = -LogEC50-cLogP, EC50 of CD11b assay in HL-60; for Activity in the CD11b assay: concentration-response. On the procedure: (§1) Cells were treated with 1000 structurally diverse small molecules selected from a commercial library. A single point testing concentration of 10 µM was used. After 4 days, cells were stained with a CD11b antibody and analysed using flow cytometry. Compounds upregulating CD11b expression greater than 10% in at least three of the cell lines were considered as potential hits. Hit confirmation was undertaken as follows: first, the hit was re-tested at 10 µM both with the CD11b antibody and an isotype control to account for nonspecific binding. Secondly, the effect of the hit on cell proliferation and viability was evaluated through staining with DAPI to evaluate the number of dead cells, and with acridine orange to detect total cell numbers. Thirdly, the induction of differentiation caused by the compounds was confirmed through morphology assessment with Giemsa staining. Finally, the molecule was resynthesised and fully characterised to confirm structural authenticity. This fresh sample was then retested in the CD11b assay to generate a concentration-response curve. The study of proliferation and morphology was performed on a panel of six cell lines: HL-60, THP-1, OCI-AML3, KG-1, Kasumi-1 and ME-1.
Thus, structure-activity relationship studies were initiated, where the potency of the new analogues was evaluated through concentration-response testing using the CD11b assay in HL-60 cells. Lipophilic efficiency (LipE), which also accounts for lipophilicity, was also used to compare the quality of the analogues. Even though multiple parameters can influence activity in a cell-based assay, LipE is a useful guide to compare analogues.
PE mouse-anti-human-CD11b/Mac-1 (ICRF44, Cat 555388) and PE-mouse-IgG1-κ-isotype control (MOPC-21, Cat 555749) were purchased from BD Bioscience. Cells were suspended in 100 μL growth media (RPMI + 10% FBS + 1% L-glutamine) at a density of 2 × 10^4 cells/well of a V-bottom 96 well plate (Corning, Cat 3894) and grown for 96 h in the presence of compound at the required concentration. After 96 h, the plate was centrifuged, media was removed, and cells were resuspended in 50 µL of blocking buffer (IMDM, no phenol red + 10% FBS) containing 2.5 μL of either CD11b or isotype control antibody and incubated on ice in the dark for 20 min. Cells were washed twice in 200 μL of staining buffer (IMDM, no phenol red + 1% FBS) before being resuspended in 200 μL of staining buffer containing 1 μg/mL of DAPI to help identify dead cells. Flow cytometry data were collected on an Attune NxT and analysed using the Attune NxT software (Life Technologies).
(In flow cytometry, cells or beads pass a laser one at a time.)

A short description of data set [1]: Metabolic stability in mouse S9 fraction. Type of data set: in vitro ADME. The settings on record: ER = Clint/species flow rate (mice: 90 mL/min/kg). On the procedure:
(§2) Determination of semi-thermodynamic solubility, metabolic stability in S9 fraction, Caco-2 permeability and PPB were performed by Cyprotex Ltd. (www.cyprotex.com, accessed on 22 October 2021) using their standard assays and as described on their website.
[22] Extraction ratio (ER) is calculated as the measured intrinsic clearance over the hepatic blood flow of each species (90 mL/min/kg for mice). It has the advantage over other parameters (half-life, clearance) that it is independent of the species used

Data set [2] is described as follows: Semi-thermodynamic aqueous solubility. The format is physicochemical. The settings on record: thermodynamic from solid. The procedure:
as §2

A short description of data set [3]: Single dose PK study in male CD-1 mice. Type of data set: in vivo, mouse. The text has this:
In order to undertake a preliminary assessment of the pharmacokinetic (PK) profile of this compound class, three compounds were deemed to have sufficient intrinsic potency, solubility and in vitro metabolic stability properties to progress into a single dose in vivo PK study. […] […] […] Nonetheless, the clearance of the three compounds was high to moderate, and at this dose the in vitro EC50 was not reached.
Male CD-1 mice were used for the PK studies, with three for each treatment. […] Blood concentration was measured by LC-MS/MS over 24 h.

Another data set has as its target T1, porcine neuronal tubulin (Sus scrofa, UniProt P02550+P02554).
T1 construct: performed using porcine neuronal tubulin (Cytoskeleton, Inc, Denver, CO, USA, BK006P); purchased Cytoskeleton, Inc BK006P; host or cells: porcine brain (neuronal) tissue
The experiment in a line: Microtubule (tubulin) polymerisation cell-free assay. Type of data set: biochemical. As to conditions: testing concentrations of up to 100 μM. The procedure: The microtubule polymerisation assay was performed using porcine neuronal tubulin (Cytoskeleton, Inc, Denver, CO, USA, BK006P) as an adaptation of the original method of Shelanski et al. and Lee et al. at Cytoskeleton, Inc.

Data set [4] deals with HL-60, THP-1, OCI-AML3, KG-1, Kasumi-1 and ME-1. The experiment in a line: Morphology assessment of stained cytospins. Type of data set: cell-based, human. As to conditions: 10 µM, 4-day treatment, six cell lines. The procedure: as §1
Cells were prepared in staining buffer (IMDM, no phenol red + 2% FBS) at a concentration of approximately 1 × 10^5 cells/mL. […]

Data set [5] shares this test system. The experiment in a line: Cell counts and viability (acridine orange / DAPI). The format is cell-based, human. As to conditions: 10 µM, 4 days. On the procedure: as §1, with “The study of proliferation and morphology was performed on a panel of six cell lines: HL-60, THP-1, OCI-AML3, KG-1, Kasumi-1 and ME-1.” left out
Solution 13 containing acridin orange and DAPI was purchased from ChemoMetec (Cat 910-3013). After the appropriate cell treatment, one volume of solution 13 was added into 19 volumes of the premixed cell suspension and analysed using the NucleoCounter® NC-300^TM (ChemoMetec).

A further data set deals with THP-1 cells. The experiment in a line: CD11b expression assay by flow cytometry in THP-1 cells. The format is cell-based. The settings on record: Homo sapiens, 96 h, 4-day treatment, resynthesised sample. The procedure: as §1, with “The study of proliferation and morphology was performed on a panel of six cell lines: HL-60, THP-1, OCI-AML3, KG-1, Kasumi-1 and ME-1.” left out
(§3) PE mouse-anti-human-CD11b/Mac-1 (ICRF44, Cat 555388) and PE-mouse-IgG1-κ-isotype control (MOPC-21, Cat 555749) were purchased from BD Bioscience. […] Flow cytometry data were collected on an Attune NxT and analysed using the Attune NxT software (Life Technologies).

For a further data set, the system named is OCI-AML3 cells. The experiment in a line: CD11b expression assay by flow cytometry in OCI-AML3 cells. The format is cell-based. The settings on record: Homo sapiens, OCI-AML-3, 96 h, 4-day treatment, resynthesised sample. The procedure: as §1, with “The study of proliferation and morphology was performed on a panel of six cell lines: HL-60, THP-1, OCI-AML3, KG-1, Kasumi-1 and ME-1.” left out
as §3

Where [6] appears, read: aqueous (buffer or water not specified).
The mark [7] stands for this setting: mouse, whole blood, single dose 3 mg/kg po, blood.
[8] abbreviates: aqueous (not further specified).
Where [9] appears, read: aqueous medium (buffer not specified).

T1 sequence (P02550 whole entry): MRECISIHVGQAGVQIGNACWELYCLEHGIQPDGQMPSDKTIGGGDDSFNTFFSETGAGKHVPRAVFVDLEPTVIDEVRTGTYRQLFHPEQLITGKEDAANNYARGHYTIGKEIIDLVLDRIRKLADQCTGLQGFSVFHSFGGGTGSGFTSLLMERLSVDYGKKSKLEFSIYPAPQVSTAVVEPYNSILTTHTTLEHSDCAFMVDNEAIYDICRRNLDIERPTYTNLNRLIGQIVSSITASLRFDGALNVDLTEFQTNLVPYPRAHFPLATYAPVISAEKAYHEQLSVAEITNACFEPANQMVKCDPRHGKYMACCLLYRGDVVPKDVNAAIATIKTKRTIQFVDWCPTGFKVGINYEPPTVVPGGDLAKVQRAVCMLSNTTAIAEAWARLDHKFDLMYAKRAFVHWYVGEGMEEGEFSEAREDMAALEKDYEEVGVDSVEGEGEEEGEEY
T1 sequence (P02554 whole entry): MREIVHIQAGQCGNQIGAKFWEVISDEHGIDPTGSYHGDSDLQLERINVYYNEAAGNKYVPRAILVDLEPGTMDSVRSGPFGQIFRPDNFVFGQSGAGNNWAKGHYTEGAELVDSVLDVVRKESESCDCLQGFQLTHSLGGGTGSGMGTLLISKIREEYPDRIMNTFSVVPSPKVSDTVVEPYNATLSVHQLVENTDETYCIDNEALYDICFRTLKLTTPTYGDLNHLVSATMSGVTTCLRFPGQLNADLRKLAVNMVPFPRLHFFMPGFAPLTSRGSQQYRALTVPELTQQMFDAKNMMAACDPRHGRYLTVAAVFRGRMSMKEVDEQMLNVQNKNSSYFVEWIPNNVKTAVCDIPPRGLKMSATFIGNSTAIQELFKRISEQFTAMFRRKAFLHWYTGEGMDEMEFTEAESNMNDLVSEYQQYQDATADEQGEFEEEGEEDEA

As a reminder, the EC50 is the concentration giving half of the maximal effect. As a reminder, the thermodynamic solubility is solubility found after equilibrating the solid with the medium. Usually bioavailability stands for the share of a dose that reaches the circulation, judged against a reference dose that is usually intravenous. High values mean good availability, low ones poor availability. In general, half-life refers to the time needed for the level to fall by half in the phase considered. The term Cmax denotes the maximum level reached in the sampled fluid or tissue. As a reminder, the Tmax is the time at which the peak concentration occurs. Take `CS(=O)(=O)Nc1cccc(-c2ccc3c(c2)N(CC(F)(F)F)C(=O)COC3)c1` [Compound 11, N-(3-(2-Oxo-1-(2,2,2-trifluoroethyl)-1,2,3,5-tetrahydrobenzo[e][1,4]oxazepin-8-yl)phenyl)methanesulfonamide]: the concentration giving a half-maximal response (EC50) in the data set on HL-60 cells (HL-60 cells) turned out to be 1900 nM. For the same compound, the “LipE (lipophilic efficiency)” value in the data set with HL-60 cells was determined as 3.8. Besides, the “ER in mS9 (extraction ratio)” value in [1] was determined as 0.05. The thermodynamic solubility in [2] (setting [6]) amounted to 33 µM (≈ 13.7 µg/mL). For the same compound, the bioavailability in data set [3] (mouse, whole blood, 3 mg/kg po vs 0.33 mg/kg iv) turned out to be 38%. The compound further gave a half-life in data set [3] (mouse, whole blood, single dose 3 mg/kg po and 0.33 mg/kg iv, blood, route of parameter not given) of 5.8 h. Moreover, in data set [3] (setting [7]), the highest level (Cmax) was 160 ng/mL and the Tmax came out at 0.33 h. Moreover, the Vd/F in data set [3] (mouse, whole blood, single dose 3 mg/kg po, blood, read-out: Vz/F) was 73 L/kg. The Clobs in [3] (single dose 0.33 mg/kg iv, blood) stood at 61 mL/min/kg. Moreover, the Clobs/F in data set [3] (single dose 3 mg/kg po, blood) came out at 159 mL/min/kg.
Consider `CC(C)N1C(=O)COCc2ccc(-c3ccccc3NS(C)(=O)=O)cc21` [Compound 25, N-(2-(1-Isopropyl-2-oxo-1,2,3,5-tetrahydrobenzo[e][1,4]oxazepin-8-yl)phenyl)methanesulfonamide], for which the “Effect on polymerisation of tubulin” value on porcine neuronal tubulin was “did not have an effect”. Further, in the data set on HL-60 cells (HL-60 cells), the “Activity in the CD11b assay” value was “inactive” and the EC50 was greater than 30000 nM.
`CC(C)N1C(=O)COCc2ccc(-c3ccc(F)c(NS(C)(=O)=O)c3)cc21` [Compound 35, N-(2-Fluoro-5-(1-isopropyl-2-oxo-1,2,3,5-tetrahydrobenzo[e][1,4]oxazepin-8-yl)phenyl)methanesulfonamide]: in the data set on HL-60 cells (HL-60 cells), the 50% effective concentration (EC50) is 1600 nM. Moreover, the “LipE (lipophilic efficiency)” value with HL-60 cells worked out at 4.0. The “ER in mS9 (extraction ratio)” value in data set [1] was 0.21. Besides, in [2] (setting [8]), the solubility (thermodynamic) is greater than 200 µM.
Take `Cc1ccc(-c2ccc3c(c2)N(C(C)C)C(=O)COC3)cc1NS(C)(=O)=O` [Compound 36, N-(5-(1-Isopropyl-2-oxo-1,2,3,5-tetrahydrobenzo[e][1,4]oxazepin-8-yl)-2-methylphenyl)methanesulfonamide]: in the data set on HL-60 cells (HL-60 cells), the EC50 was determined as 600 nM. Also, in the data set on HL-60 cells, the “LipE (lipophilic efficiency)” value was found to be 4.1. Moreover, the “ER in mS9 (extraction ratio)” value in [1] is reported as 1. In addition, the thermodynamic solubility in data set [2] (setting [8]) was greater than 200 µM.
Turning to `COc1ccc(-c2ccc3c(c2)N(C(C)C)C(=O)COC3)cc1NS(C)(=O)=O` [Compound 37, N-(5-(1-Isopropyl-2-oxo-1,2,3,5-tetrahydrobenzo[e][1,4]oxazepin-8-yl)-2-methoxyphenyl)methanesulfonamide], in the data set with HL-60 cells (HL-60 cells), the EC50 is 1200 nM. Moreover, the “LipE (lipophilic efficiency)” value in the data set with HL-60 cells came out at 4.2. Moreover, the “ER in mS9 (extraction ratio)” value in [1] is 1. Further, the solubility (thermodynamic) in data set [2] (setting [8]) is greater than 200 µM.
Consider `CS(=O)(=O)Nc1cccc(-c2ccc3c(c2)N(CC2CC2)C(=O)OC3)c1` [Compound 41, N-(3-(1-(Cyclopropylmethyl)-2-oxo-1,4-dihydro-2H-benzo[d][1,3]oxazin-7-yl)phenyl)methanesulfonamide], for which the “Loss in activity compared to OXS003976” value in the data set on HL-60 cells (CD11b EC50 in HL-60, vs OXS003976) is listed as 15 fold. Besides, in the data set with HL-60 cells (HL-60 cells), the half-maximal effective concentration (EC50) is 15000 nM. Moreover, the “LipE (lipophilic efficiency)” value in the data set on HL-60 cells is 2.5. Besides, the “ER in mS9 (extraction ratio)” value in [1] was 0.54. In addition, the solubility (thermodynamic) in [2] (setting [9]) stood at 77 µM (≈ 28.7 µg/mL).
In the case of `CC(C)N1C(=O)COCc2ncc(-c3cccc(NS(C)(=O)=O)c3)cc21` [Compound 42, N-(3-(1-Isopropyl-2-oxo-1,2,3,5-tetrahydropyrido[3,2-e][1,4]oxazepin-8-yl)phenyl)methanesulfonamide], in the data set on HL-60 cells (HL-60 cells), the “Activity in the CD11b assay” value is on record as “retained weak activity” and the concentration giving a half-maximal response (EC50) amounted to 2200 nM. The “LipE (lipophilic efficiency)” value in the data set with HL-60 cells was 4.9. In addition, the “ER in mS9 (extraction ratio)” value in [1] was determined as 0.09. For the same compound, in data set [2] (setting [9]), the solubility (thermodynamic) was greater than 200 µM.
For `CS(=O)(=O)Nc1cccc(-c2ccc3c(c2)N(CC2CC2)C(=O)COC3)c1` [OXS003976, N-(3-(1-(Cyclopropylmethyl)-2-oxo-1,2,3,5-tetrahydrobenzo[e][1,4]oxazepin-8-yl)phenyl)methanesulfonamide], the “Cell morphology” value in data set [4] was “induced morphological changes consistent with differentiation”. Also, in data set [5], the “Cell proliferation and viability” value is “decreased cell proliferation and viability”. In addition, in the data set on HL-60 cells (10 µM, 4-day treatment, HL-60 cells), the “CD11b expression vs isotype control” value is “upregulated CD11b expression, but not the isotype control”. Further, the 50% effective concentration (EC50) in the data set on HL-60 cells (HL-60 cells) came to 770 nM; with THP-1 cells, 3400 nM; with OCI-AML3 cells, 950 nM. Further, in the data set with HL-60 cells, the “LipE (lipophilic efficiency)” value was 4.3. Moreover, the “ER in mS9 (extraction ratio)” value in data set [1] is recorded as 0.54. This compound also showed a solubility (thermodynamic) in data set [2] (setting [6]) greater than 200 µM.
